Source: PMC7459852, “Identification of 6-(piperazin-1-yl)-1,3,5-triazine as a chemical scaffold with broad anti-schistosomal activities” (Wellcome Open Research, 2020)

How the values were obtained:
S. mansoni adult worms [1] = assay: Scanning electron microscopy of compound damage on adult worms; format: cell-based, Schistosoma mansoni; conditions: 12.50 µM (sub-lethal), 72 h
Procedure: Following 72 h of drug treatment, the cultured S. mansoni adult worms were collected, separated by sex and relaxed with tricaine anaesthetic solution (0.25% w/v of ethyl 3-aminobenzoate methane sulfonate - Tricaine, E10521, Sigma Aldrich - in DMEM). The samples were incubated by gently rocking for 15 min or until parasites relaxed and separated. The parasites were then killed by incubation in a solution of […] magnesium chloride (MgCl 2) for 1 min. Afterwards, adult schistosome worms were briefly washed with pre-warmed 1X PBS and then fixed using appropriate solutions for analysis by scanning electron microscopy (SEM) as previously described in literature, [61], [62].
Post fixation, adult schistosomes were stored at 4°C until washing with 0.1 M sodium cacodylate was performed (2 x 30 min each). The worms were then stained with 1% v/v osmium tetroxide water solution (stored at -20°C and pre-warmed at room temperature prior to use) for 2 h and then washed with 0.1 M sodium cacodylate for 30 min. Following staining, worms were dehydrated with an aqueous alcohol series (30, 50, 70, 95 and 100% ethanol in ultra-pure water) by agitating gently on a rocker for 30 min per solution. At the final step, the samples were left in 100% ethanol overnight before being dried with hexamethyldisilazane critical drying point agent (AGR1228, Agar Scientific, Stansted, UK) for at least 3 h. […]

S. mansoni adult worms [2] = assay: Adult worm screens (WormassayGP2 motility, egg count); format: cell-based, Schistosoma mansoni; conditions: 72 h
Procedure: For compound screening, adult worms (three worm pairs/well for compound 7 and the hit compounds of set two; one worm pair/well for the hit compounds of set three) were transferred into wells of a 48-well tissue culture plate containing 1 ml of adult worm media. Adult worms were treated with compounds previously identified as hits at 10 µM on 72 h cultured schistosomula. Worms were dosed with an appropriate volume of 10 mM stock solution of each compound (in DMSO) to have a concentration range of 50 – 6.25 µM (up to 0.5% DMSO, primary screen of compound 7). Secondary screens were performed on the structural analogues of compound 7 (only the schistosomula hits at 10 µM) at a single concentration (12.5 µM) and compared to the same concentration of the parental compound (included in the screen as reference). DMSO (0.5%) and praziquantel (10 µM in 0.5% DMSO) were also included as negative and positive control treatments (both primary and secondary screens). Treated adult worms were incubated for 72 h in a humidified environment at 5% CO 2 at 37°C. Parasite motility after drug treatment was assessed by a digital image processing-based system (WormassayGP2, see Software availability) modified after Wormassay, [56], [57]. Egg production was assessed according to the methodology described by Edwards et al..

c1ccc(Nc2nc(N3CCCC3)nc(N3CCNCC3)n2)cc1 [Compound 7]
morphological changes of adult worms by SEM (S. mansoni adult worms [1]): partial loss of tubercles and spines as well as tegument erosion | effect on adult worms (motility) (S. mansoni adult worms [2]; 12.50 and 6.25 µM): worm recovery began at 12.50 µM and remained at 6.25 µM | effect on adult worms (motility) (S. mansoni adult worms [2]; 50 and 25 µM): lethal effect | egg production (worm fecundity) (S. mansoni adult worms [2]; titration 50 - 6.25 µM, effect up to and including 12.50 µM): particularly effective in inhibiting worm fecundity
